Consider one compound from PubChem BioAssay (NCI).

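Cultured in 96-well plates, cells were exposed to test compound for 48 hours across five concentrations. GI50 = concentration required for 50% inhibition of growth. TGI marks complete inhibition of growth.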

Test systems include MCF7 breast; NCI-H226 lung; SF-295 CNS; CAKI-1 renal; MOLT-4 leukemia; RPMI-8226 leukemia; PC-3 prostate; BT-549 breast; M14 melanoma; TK-10 renal.
Holding throughout (assay): NCI anticancer screen, dose series, 48 h

In the case of `CN1CCC(COc2cnc(-c3cccc(Cn4nc(-c5cccc(C#N)c5)ccc4=O)c3)nc2)CC1`, the GI50 was 3.46 µM with MCF7 breast; 7.18 µM in the experiment with NCI-H226 lung; 0.771 µM in the experiment on SF-295 CNS; 3.15 µM with CAKI-1 renal; 2.53 µM with MOLT-4 leukemia; 2.64 µM in the experiment on RPMI-8226 leukemia. In addition, the GI50 in the experiment with PC-3 prostate is 6.7 µM; with BT-549 breast, 4.66 µM; in the experiment with M14 melanoma, 1.96 µM; in the experiment with TK-10 renal, 2.65 µM. In addition, the TGI was found to be 14.9 µM with MCF7 breast; 24.8 µM in the experiment with NCI-H226 lung; 16.5 µM in the experiment on SF-295 CNS; 13.8 µM in the experiment on CAKI-1 renal; 6.62 µM with MOLT-4 leukemia; 9.21 µM in the experiment on RPMI-8226 leukemia. Moreover, the TGI in the experiment on PC-3 prostate worked out at 31.8 µM; in the experiment on BT-549 breast it was 15.2 µM; in the experiment on M14 melanoma, 3.64 µM; in the experiment on TK-10 renal it was 6.15 µM.
